In patent US20090093448A1, “19-NOR-PROGESTERONE FOR CONTRACEPTION” (GRUNENTHAL GMBH, priority 2007, published 2009):
Counter-ions that a name gives are not always drawn.

Columns and labels:
[1] = target: T1, human progesterone receptor (Homo sapiens, UniProt P06401); experiment: Relative binding affinity for the human progesterone receptor; details: for Relative binding affinity to progesterone receptor: progesterone as reference = 100
T1 sequence (P06401 1-933): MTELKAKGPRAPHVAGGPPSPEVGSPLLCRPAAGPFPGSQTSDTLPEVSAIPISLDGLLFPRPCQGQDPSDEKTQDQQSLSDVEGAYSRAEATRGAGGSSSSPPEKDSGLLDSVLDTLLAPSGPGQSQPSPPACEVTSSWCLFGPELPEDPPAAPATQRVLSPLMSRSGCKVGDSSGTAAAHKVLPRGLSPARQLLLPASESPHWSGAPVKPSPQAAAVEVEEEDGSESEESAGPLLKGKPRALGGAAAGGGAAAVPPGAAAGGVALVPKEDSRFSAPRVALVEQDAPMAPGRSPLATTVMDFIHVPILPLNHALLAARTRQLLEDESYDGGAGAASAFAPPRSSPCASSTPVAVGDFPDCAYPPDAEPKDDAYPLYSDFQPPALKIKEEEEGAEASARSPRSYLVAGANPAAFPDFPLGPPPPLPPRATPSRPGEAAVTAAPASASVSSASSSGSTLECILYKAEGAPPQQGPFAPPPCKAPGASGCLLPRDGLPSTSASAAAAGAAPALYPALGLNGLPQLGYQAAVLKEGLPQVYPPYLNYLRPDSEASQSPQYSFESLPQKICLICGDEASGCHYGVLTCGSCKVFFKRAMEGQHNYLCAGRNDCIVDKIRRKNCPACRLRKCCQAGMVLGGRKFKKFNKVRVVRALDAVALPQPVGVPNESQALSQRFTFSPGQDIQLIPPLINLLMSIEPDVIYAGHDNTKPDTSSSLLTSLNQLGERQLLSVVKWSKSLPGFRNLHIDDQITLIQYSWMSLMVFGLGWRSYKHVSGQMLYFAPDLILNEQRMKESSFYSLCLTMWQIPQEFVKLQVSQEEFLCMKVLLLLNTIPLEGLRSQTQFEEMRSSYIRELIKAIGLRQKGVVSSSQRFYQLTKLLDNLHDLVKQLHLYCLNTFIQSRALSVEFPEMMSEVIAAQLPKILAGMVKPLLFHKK

endometrium = experiment: McPhail test (progestational proliferation of the endometrium); assay type: in vivo, rabbits; details: for Mean McPhail Score (max. 4.0): estrone-primed immature female rabbits, five daily doses
Procedure: Trimegestone sulfate was tested in the McPhail test, which is a test for progesterone and like substances. Immature female rabbits are treated with 150 IU of estrone over a period of 6 days. The test material is then given in five daily subcutaneous doses. Progestational proliferation of the endometrium is noted and the results estimated according to a scale from 0 to 4.0.

Row | Relative binding affinity to progesterone receptor [1] | relative affinity for the progesterone receptor ([1]; % of the affinity of natural progesterone) [%] | SMILES | Mean McPhail Score (max. 4.0) (endometrium; 0.1 mg/kg/day s.c.) | Mean McPhail Score (max. 4.0) (endometrium; 1.0 mg/kg/day s.c.) | Mean McPhail Score (max. 4.0) (endometrium; 0.0001 mg/kg/day s.c.) | Mean McPhail Score (max. 4.0) (endometrium; 0.001 mg/kg/day s.c.) | Mean McPhail Score (max. 4.0) (endometrium; 0.01 mg/kg/day s.c.) | Mean McPhail Score (max. 4.0) (endometrium; 10.0 mg/kg/day s.c.) | endometrium transforming effects in the McPhail test (endometrium; s.c., 0.0001 to 10.0 mg/kg/day, result in words)
1 | 64 |  | CC(O)C(=O)C1(C)CCC2C3CCC4=CC(=O)CC(O)C4=C3CCC21C (stereo not drawn) [1β-OH trimegestone, 1β-hydroxytrimegestone, reference compound] |  |  |  |  |  |  | 
2 | 12 |  | CC(O)C(=O)C1(C)CCC2C3CC(O)C4=CC(=O)CCC4=C3CCC21C (stereo not drawn) [6β-OH trimegestone, 6β-hydroxytrimegestone, reference compound] |  |  |  |  |  |  | 
3 |  |  | CC(=O)[C@H]1CC[C@H]2[C@@H]3CCC4=CC(=O)CC[C@]4(C)[C@H]3CC[C@]12C [Progesterone] | 2.25 | 3.75 |  |  |  |  | 
4 | 40 | 40 | C[C@H](OS(=O)(=O)O)C(=O)[C@@]1(C)CCC2C3CCC4=CC(=O)CCC4=C3CC[C@@]21C (stereo partly shown) [Trimegestone sulfate, Trimegestone sulfate, pyridinium salt] | 3.31 | 2.93 | 0.75 | 0.88 | 2.1 | 3.68 | dose-dependent potent endometrium transforming effects
